The NIST ThermoML archive (doi:10.1016/j.jct.2008.07.010)
Where “and” joins values, the source holds several entries; their conditions need not be identical. Equal values may be shown once. Numbers after ± are expanded uncertainties.

How the values were obtained:
[1] = 101 kPa, Liquid; for viscosity: Capillary tube (Ostwald / Ubbelohde) method; for speed of sound: Sing-around technique in a fixed-path interferometer; for mass density: Vibrating tube method
[2] = xn = mol fraction of the nth substance listed; conditions: 101 kPa, Liquid, x1 = 1; for viscosity: Capillary tube (Ostwald / Ubbelohde) method; for speed of sound: Sing-around technique in a fixed-path interferometer; for mass density: Vibrating tube method

SMILES: CC(C)CCCC(C)CCCC(C)CCCCC(C)CCCC(C)CCCC(C)C (stereo not given) [2,6,10,15,19,23-hexamethyltetracosane]
- viscosity ([1]; 298.15 K): 28.26 ± 0.31 mPa·s
- speed of sound ([1]; 298.15 K): 1381.9 ± 1.3 m/s
- mass density ([1]; 298.15 K): 805.122 ± 0.24 kg/m3
- viscosity ([1]; 303.15 K): 22.09 ± 0.26 mPa·s
- speed of sound ([1]; 303.15 K): 1364.1 ± 1.3 m/s
- mass density ([1]; 303.15 K): 801.912 ± 0.24 kg/m3
- viscosity ([1]; 308.15 K): 17.77 ± 0.21 mPa·s
- speed of sound ([1]; 308.15 K): 1346.5 ± 1.3 m/s
- mass density ([1]; 308.15 K): 798.709 ± 0.24 kg/m3

SMILES: CCCCCCCCCCCCCCCC [hexadecane]
- viscosity ([1]; 298.15 K): 3.041 ± 0.026 mPa·s
- speed of sound ([1]; 298.15 K): 1338.6 ± 1.3 m/s
- mass density ([1]; 298.15 K): 770.456 ± 0.24 kg/m3
- viscosity ([1]; 303.15 K): 2.706 ± 0.024 mPa·s
- speed of sound ([1]; 303.15 K): 1320 ± 1.3 m/s
- mass density ([1]; 303.15 K): 766.981 ± 0.24 kg/m3
- viscosity ([1]; 308.15 K): 2.409 ± 0.022 mPa·s
- speed of sound ([1]; 308.15 K): 1301.7 ± 1.3 m/s
- mass density ([1]; 308.15 K): 763.52 ± 0.24 kg/m3

SMILES: CC(C)O [propan-2-ol]
- viscosity ([1]; 298.15 K): 2.061 ± 0.018 mPa·s
- speed of sound ([1]; 298.15 K): 1139.3 ± 0.85 m/s and 1139.3 ± 0.9 m/s
- mass density ([1]; 298.15 K): 781.152 ± 0.15 kg/m3
- viscosity ([1]; 303.15 K): 1.758 ± 0.015 mPa·s
- speed of sound ([1]; 303.15 K): 1122 ± 0.8 m/s
- mass density ([1]; 303.15 K): 776.87 ± 0.15 kg/m3
- viscosity ([1]; 308.15 K): 1.573 ± 0.013 mPa·s
- speed of sound ([1]; 308.15 K): 1104.5 ± 0.8 m/s
- mass density ([1]; 308.15 K): 772.511 ± 0.15 kg/m3

SMILES: CC(C)O [propan-2-ol] + CC(C)CCCC(C)CCCC(C)CCCCC(C)CCCC(C)CCCC(C)C
- viscosity ([2]; 298.15 K): 2.061 ± 0.018 mPa·s
- speed of sound ([2]; 298.15 K): 1139.3 ± 0.9 m/s
- mass density ([2]; 298.15 K): 781.152 ± 0.15 kg/m3
- viscosity ([2]; 303.15 K): 1.758 ± 0.015 mPa·s
- speed of sound ([2]; 303.15 K): 1122 ± 0.8 m/s
- mass density ([2]; 303.15 K): 776.87 ± 0.15 kg/m3
- viscosity ([2]; 308.15 K): 1.573 ± 0.013 mPa·s
- speed of sound ([2]; 308.15 K): 1104.5 ± 0.8 m/s
- mass density ([2]; 308.15 K): 772.511 ± 0.15 kg/m3

SMILES: CC(C)O [propan-2-ol] + CCCCCCCCCCCCCCCC
- viscosity ([2]; 298.15 K): 2.061 ± 0.018 mPa·s
- speed of sound ([2]; 298.15 K): 1139.3 ± 0.85 m/s
- mass density ([2]; 298.15 K): 781.152 ± 0.15 kg/m3
- viscosity ([2]; 303.15 K): 1.758 ± 0.015 mPa·s
- speed of sound ([2]; 303.15 K): 1122 ± 0.8 m/s
- mass density ([2]; 303.15 K): 776.87 ± 0.15 kg/m3
- viscosity ([2]; 308.15 K): 1.573 ± 0.013 mPa·s
- speed of sound ([2]; 308.15 K): 1104.5 ± 0.8 m/s
- mass density ([2]; 308.15 K): 772.511 ± 0.15 kg/m3
